PubChem BioAssay (NCI)
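Cultured in 96-well plates, cells were exposed to test compound for 48 hours across five concentrations. TGI: concentration producing complete growth inhibition.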

Legend:
Experiment in all cases: NCI tumour cell line growth inhibition, 48 h
HL-60(TB) leukemia = test system: HL-60(TB) leukemia
U251 CNS = test system: U251 CNS
MDA-MB-435 = test system: MDA-MB-435
NCI-H226 lung = test system: NCI-H226 lung
SNB-19 CNS = test system: SNB-19 CNS
DU-145 prostate = test system: DU-145 prostate
CAKI-1 renal = test system: CAKI-1 renal
UACC-62 melanoma = test system: UACC-62 melanoma
IGROV1 ovarian = test system: IGROV1 ovarian
RPMI-8226 leukemia = test system: RPMI-8226 leukemia
COLO 205 colon = test system: COLO 205 colon
UACC-257 melanoma = test system: UACC-257 melanoma
LOX IMVI melanoma = test system: LOX IMVI melanoma
HOP-62 NSCLC = test system: HOP-62 NSCLC
HT29 colon = test system: HT29 colon
UO-31 renal = test system: UO-31 renal
HCC-2998 colon = test system: HCC-2998 colon
MOLT-4 leukemia = test system: MOLT-4 leukemia
HCT-15 colon = test system: HCT-15 colon
A498 renal = test system: A498 renal
EKVX NSCLC = test system: EKVX NSCLC
K-562 leukemia = test system: K-562 leukemia
SF-295 CNS = test system: SF-295 CNS
NCI-H460 lung = test system: NCI-H460 lung
M14 melanoma = test system: M14 melanoma
TK-10 renal = test system: TK-10 renal
SK-MEL-28 melanoma = test system: SK-MEL-28 melanoma
ACHN renal = test system: ACHN renal
SK-MEL-5 melanoma = test system: SK-MEL-5 melanoma
MDA-MB-231 breast = test system: MDA-MB-231 breast
OVCAR-4 ovarian = test system: OVCAR-4 ovarian
SF-268 CNS = test system: SF-268 CNS
OVCAR-8 ovarian = test system: OVCAR-8 ovarian
SNB-75 CNS = test system: SNB-75 CNS
BT-549 breast = test system: BT-549 breast
MCF7 breast = test system: MCF7 breast
T-47D breast = test system: T-47D breast
HS 578T breast = test system: HS 578T breast
NCI-H23 lung = test system: NCI-H23 lung
SK-MEL-2 melanoma = test system: SK-MEL-2 melanoma
KM12 colon = test system: KM12 colon
SF-539 CNS = test system: SF-539 CNS
CCRF-CEM leukemia = test system: CCRF-CEM leukemia
HOP-92 NSCLC = test system: HOP-92 NSCLC
NCI/ADR-RES ovarian = test system: NCI/ADR-RES ovarian
SW-620 colon = test system: SW-620 colon
HCT-116 colon = test system: HCT-116 colon
PC-3 prostate = test system: PC-3 prostate
SR leukemia = test system: SR leukemia
RXF 393 renal = test system: RXF 393 renal
SK-OV-3 ovarian = test system: SK-OV-3 ovarian
786-0 renal = test system: 786-0 renal

COc1ccccc1NC(=S)N/N=C/c1c(C)n(C)n(-c2ccccc2)c1=O
TGI (HL-60(TB) leukemia): > 100 µM
TGI (U251 CNS): > 100 µM
TGI (MDA-MB-435): > 100 µM
TGI (NCI-H226 lung): > 100 µM
TGI (SNB-19 CNS): > 100 µM
TGI (DU-145 prostate): > 100 µM
TGI (CAKI-1 renal): > 100 µM
TGI (UACC-62 melanoma): > 100 µM
TGI (IGROV1 ovarian): > 100 µM
TGI (RPMI-8226 leukemia): > 100 µM
TGI (COLO 205 colon): > 100 µM
TGI (UACC-257 melanoma): > 100 µM
TGI (LOX IMVI melanoma): > 100 µM
TGI (HOP-62 NSCLC): > 100 µM
TGI (HT29 colon): > 100 µM
TGI (UO-31 renal): > 100 µM
TGI (HCC-2998 colon): > 100 µM
TGI (MOLT-4 leukemia): > 100 µM
TGI (HCT-15 colon): > 100 µM
TGI (A498 renal): > 100 µM
TGI (EKVX NSCLC): > 100 µM
TGI (K-562 leukemia): > 100 µM
TGI (SF-295 CNS): > 100 µM
TGI (NCI-H460 lung): > 100 µM
TGI (M14 melanoma): > 100 µM
TGI (TK-10 renal): > 100 µM
TGI (SK-MEL-28 melanoma): > 100 µM
TGI (ACHN renal): > 100 µM
TGI (SK-MEL-5 melanoma): > 100 µM
TGI (MDA-MB-231 breast): > 100 µM
TGI (OVCAR-4 ovarian): > 100 µM
TGI (SF-268 CNS): > 100 µM
TGI (OVCAR-8 ovarian): > 100 µM
TGI (SNB-75 CNS): > 100 µM
TGI (BT-549 breast): > 100 µM
TGI (MCF7 breast): > 100 µM
TGI (T-47D breast): > 100 µM
TGI (HS 578T breast): > 100 µM
TGI (NCI-H23 lung): > 100 µM
TGI (SK-MEL-2 melanoma): > 100 µM
TGI (KM12 colon): > 100 µM
TGI (SF-539 CNS): > 100 µM
TGI (CCRF-CEM leukemia): > 100 µM
TGI (HOP-92 NSCLC): > 100 µM
TGI (NCI/ADR-RES ovarian): 63.9 µM
TGI (SW-620 colon): > 100 µM
TGI (HCT-116 colon): > 100 µM
TGI (PC-3 prostate): > 100 µM
TGI (SR leukemia): > 100 µM
TGI (RXF 393 renal): > 100 µM
TGI (SK-OV-3 ovarian): > 100 µM
TGI (786-0 renal): > 100 µM
